Results taken from patent US8957049B2, “Inhibitors of fatty acid amide hydrolase” (Infinity Pharmaceuticals, Inc., priority 2008, dated 2015).

target: T1, human FAAH (Homo sapiens, UniProt O00519); experiment: Human FAAH biochemical inhibition assay (AMC arachidonoyl amide fluorescence); details: class given in each Example, read-out: Activity (Ki, inhibition of human FAAH)
T1 construct: host or cells: COS-7 cells, transient transfection (FuGENE 6); 13,000 g membrane fraction solubilised in 1% Triton X-100
T1 sequence (O00519 1-579): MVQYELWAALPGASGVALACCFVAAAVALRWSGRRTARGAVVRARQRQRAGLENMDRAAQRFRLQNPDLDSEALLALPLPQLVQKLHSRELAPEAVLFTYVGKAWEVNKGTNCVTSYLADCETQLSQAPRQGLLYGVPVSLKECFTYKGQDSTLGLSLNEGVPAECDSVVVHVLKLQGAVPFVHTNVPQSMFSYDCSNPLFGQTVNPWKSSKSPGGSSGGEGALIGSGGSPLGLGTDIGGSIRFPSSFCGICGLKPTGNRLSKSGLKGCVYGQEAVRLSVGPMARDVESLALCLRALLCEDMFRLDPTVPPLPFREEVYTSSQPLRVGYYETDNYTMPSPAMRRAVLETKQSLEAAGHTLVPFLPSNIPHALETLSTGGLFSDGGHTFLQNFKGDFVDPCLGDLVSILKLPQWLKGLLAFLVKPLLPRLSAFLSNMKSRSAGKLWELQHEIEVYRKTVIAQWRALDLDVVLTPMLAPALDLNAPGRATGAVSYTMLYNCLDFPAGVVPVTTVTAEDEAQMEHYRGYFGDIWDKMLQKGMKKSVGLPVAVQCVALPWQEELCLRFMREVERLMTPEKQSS
Experimental: Exemplary compounds are set forth in the Examples provided below. Compounds were assayed as inhibitors of human FAAH using the method described in detail in Example 286.
The following assays may be used to determine the inhibition of FAAH by the compounds of the present invention: (1) a fluorescence-based assay for fatty acid amide hydrolase compatible with high-throughput screening as described in Manjunath et al., Analytical Biochemistry (2005) 343:143-151; and (2) a high-throughput screening for the discovery of inhibitors of fatty acid amide hydrolase using a microsome-based fluorescent assay. Wang et al., Biomolecular Screening (2006) 1-9.
COS-7 cells were split the day before, 1:5 into 150 mm×25 mm cell culture dishes (Corning Inc., Cat. No. 430599). Transient transfection took place at 30-40% confluency according to FuGENE 6 Transfection Reagent (Roche, Cat. No. 11814 443 001).
The FuGENE transfection 6 reagent (45 uL) was added to 1410 μL of media (DMEM, serum free without pen/strep) in a 15 mL conical tube and incubated at room temp for 5 minutes, followed by the addition of FAAH plasmid DNA (15 μg) (OriGene Cat. No. TC119221, Genbank Accession No. NM_001441.1, 0.67 ug/uL) and a further incubation of 15 minutes at room temperature. The resulting solution was added into one dish of 30-40% confluent COS-7 cells in a drop-wise manner. The COS-7 cell dish was subsequently incubated for 48 hours. The cells are then harvested.
Media was aspirated from the dishes and the cells rinsed with 10 mL PBS. The PBS was removed and 3 mL of PBS added to the dish. The dish was scraped to resuspend the cells, and the subsequent cell suspension collected into a 15 mL conical tube. The cells were pelleted by centrifugation at 1200 rpm for 5 minutes in a bench top centrifuge. PBS was removed and the cell pellet snap frozen in liquid nitrogen and stored at −80° C.
COS-7 Cells—FAAH Purification: • (1) Fractionation: Frozen cell pellets from transient transfections were thawed on ice and resuspended in 12.5 mM Hepes pH 8.0, 100 mM NaCl, 1 mM EDTA (10 mL/0.2 g cell pellet). The pellets were dounce homogenized and then sonicated to produce cell extract. The cell extract was subsequently centrifuged at 1000 g to remove cellular debris. The pellet was discarded and the supernatant centrifuged at 13,000 g for 20 minutes. The pellet contained membrane bound FAAH. The supernatant was discarded and the pellet resolubilized. • (2) Re-solubilization: The fraction of interest, (13,000 g, membrane fraction) was re-suspended in 2.3 mL re-suspension buffer (20 mM Hepes pH 7.8, 10% v/v Glycerol, 1 mM EDTA, 1% Triton X-100) and the sample incubated on ice for 1 hour and then centrifuged to remove any particulate matter. The supernatant containing solubilized human FAAH was aliquoted and snap frozen in liquid nitrogen and stored at −80° C. until use. • (3) Characterization: Protein Concentration determined by Bradford assay. • SDS gel and Western blot to confirm presence of FAAH • FAAH activity assay • Km determination—96-well assay • Linear dependence—96-well assay • Standard compound Ki determination—384-well assay
Rat FAAH biochemical assays were carried out in a 96 well flat bottom black non-treated polystyrene plates (Corning Costar Catalogue #3915). FAAH reaction buffer: 50 mM Hepes (pH 7.5), 1 mM EDTA, 0.2% Triton X-100. FAAH substrate—AMC Arachidonoyl Amide (Cayman Chemicals Company, Catalog #10005098). The reaction was read in an Envision microtiter plate reader [Excitation filter 355 nm (40 nm bandpass); Emmision filter 460 nm (25 nm bandpass)]. The raw fluorescence was plotted on the y axis and the inhibitor concentration on the x axis to give a dose response inhibition curve. The data was fitted to a single site competitive inhibition equation, fixing the Km for the rat and human enzyme to 12 μM and 9 μM respectively. […]

Row | SMILES | Ki [nM]
1 | OB(O)c1cccc(-c2nnc(-c3ccccc3)o2)c1 [Compound 63] | 100 to 1000
2 | OB(O)c1ccc(Cc2nnc(-c3ccccc3)o2)cc1 [Compound 64] | 10 to 100
3 | OB(O)c1ccc(-c2nnc(-c3ccccn3)o2)cc1 [Compound 65] | 10 to 100
4 | COc1cccc(-c2nnc(-c3ccc(B(O)O)cc3)o2)c1 [Compound 66] | ≤ 10
5 | OB(O)c1ccc(-c2nnc(-c3ccccc3)o2)c(F)c1 [Compound 67] | 10 to 100
6 | OB(O)c1ccc(-c2nnc(-c3ccccc3)o2)c(Cl)c1 [Compound 68] | ≤ 10
7 | OB(O)c1ccc(-c2nnc(Cc3ccccc3)o2)cc1F [Compound 69] | 10 to 100
8 | OB(O)c1ccc(-c2nnc(Cc3ccccc3)o2)cc1 [Compound 70] | ≤ 10
9 | OB(O)c1ccc(-c2nnc(-c3ccccc3)o2)cc1 [Compound 71] | ≤ 10
10 | CCCc1nnc(-c2ccsc2B(O)O)o1 [Compound 72] | > 1000
11 | CC(C)(O)c1nnc(-c2ccc(B(O)O)cc2)o1 [Compound 73] | 10 to 100
12 | CCOCc1nnc(-c2ccc(B(O)O)cc2)o1 [Compound 74] | 10 to 100
13 | COCc1nnc(-c2ccc(B(O)O)cc2)o1 [Compound 75] | ≤ 10
14 | CCCc1nnc(-c2ccc(B(O)O)c(-c3nnc(CCC)o3)c2)o1 [Compound 76] | ≤ 10
15 | CC(C)(C)c1nnc(-c2ccc(B(O)O)cc2)o1 [Compound 77] | ≤ 10
16 | C=CCCCc1nnc(-c2ccc(B(O)O)cc2)o1 [Compound 78] | ≤ 10
17 | OB(O)c1ccc(-c2nnc(-c3ccccc3)o2)cc1F [Compound 79] | 10 to 100
18 | OB(O)c1ccc(-c2nnc(-c3ccccc3)o2)c(C(F)(F)F)c1 [Compound 81] | 100 to 1000
19 | CC(C)(C)OC(=O)NCCc1nnc(-c2ccc(B(O)O)cc2)o1 [Compound 82] | 10 to 100
20 | CC(C)(C)OC(=O)NCc1nnc(-c2ccc(B(O)O)cc2)o1 [Compound 83] | 10 to 100
21 | NCCc1nnc(-c2ccc(B(O)O)cc2)o1 [Compound 84] | > 1000

Row | SMILES | Ki [nM]
22 | CC(=O)NCCc1nnc(-c2ccc(B(O)O)cc2)o1 [Compound 85] | 100 to 1000
23 | COC(=O)NCCc1nnc(-c2ccc(B(O)O)cc2)o1 [Compound 86] | 10 to 100
24 | Cc1nc2cc(B(O)O)ccc2s1 [Compound 88] | 100 to 1000
25 | COCCCc1cn(-c2ccccc2)nc1-c1ccc(B(O)O)cc1 [Compound 92] | > 1000
26 | COCc1cc(OCCc2ccccc2)ccc1B(O)O [Compound 95] | 10 to 100
27 | OCc1cc(OCc2ccccc2)ccc1B(O)O [Compound 96] | > 1000
28 | OB(O)c1ccc(OCCc2ccccc2)cc1COCc1ccccc1 [Compound 97] | > 1000
29 | O=Cc1cc(OCCc2ccccc2)ccc1B(O)O [Compound 98] | ≤ 10
30 | COC(=O)/C=C/c1cc(OCCc2ccccc2)ccc1B(O)O [Compound 100] | ≤ 10
31 | COC(=O)/C=C/c1ccsc1B(O)O [Compound 101] | 100 to 1000
32 | COC(=O)CCc1cc(OCCc2ccccc2)ccc1B(O)O [Compound 102] | 10 to 100
33 | CN(C)C(=O)/C=C/c1cc(OCCc2ccccc2)ccc1B(O)O [Compound 103] | 10 to 100
34 | OB1ON=Cc2cc(OCCc3ccccc3)ccc21 [Compound 104] | 10 to 100
35 | OB1ON=Cc2cc(OCc3ccccc3)ccc21 [Compound 105] | 10 to 100
36 | [O-]/[N+](=C\c1cc(OCc2ccccc2)ccc1B(O)O)Cc1ccccc1 [Compound 106] | 100 to 1000
37 | OCCN1N=Cc2cc(OCCc3ccccc3)ccc2B1O [Compound 107] | > 1000
38 | CN1N=Cc2cc(OCCc3ccccc3)ccc2B1O [Compound 108] | > 1000
39 | OB1c2ccc(OCc3ccccc3)cc2C=NN1Cc1ccccc1 [Compound 109] | 10 to 100
40 | CN(Cc1ccccc1)Cc1cc(OCc2ccccc2)ccc1B(O)O [Compound 110] | 100 to 1000
41 | OB(O)c1ccc(OCc2ccccc2)cc1CNCc1ccccc1 [Compound 111] | 100 to 1000
42 | O=C(/C=C/c1ccccc1B(O)O)NCc1ccccc1 [Compound 112] | 100 to 1000
